According to paper PMC8373216, “Development and Preclinical Evaluation of New Inhaled Lipoglycopeptides for the Treatment of Persistent Pulmonary Methicillin-Resistant Staphylococcus aureus Infections” (Antimicrobial Agents and Chemotherapy, 2021):
Converted amounts (≈) assume the structure as drawn. Where two headings read alike, the source gives them in different places.

Experiments:
[1] = tested on: MRSA ATCC BAA 1556 (USA300); experiment: In-house broth microdilution MIC screening; type: cell-based, Staphylococcus aureus
MSSA ATCC 29213 = experiment: In-house broth microdilution MIC screening; type: cell-based; details: Staphylococcus aureus; broth microdilution; read-out: MIC Value, MSSA ATCC 29213
[2] = tested on: Staphylococcus epidermidis; experiment: Expanded panel broth microdilution MIC/MBC; type: cell-based; details: for MIC: Staphylococcus epidermidis
Staphylococcus hominis = experiment: Expanded panel broth microdilution MIC; type: cell-based
Streptococcus pneumoniae = experiment: Expanded panel broth microdilution MIC/MBC; type: cell-based
[3] = tested on: Streptococcus dysgalactiae; experiment: Expanded panel broth microdilution MIC/MBC; type: cell-based; details: for MIC: Streptococcus dysgalactiae
Streptococcus anginosus = experiment: Expanded panel broth microdilution MIC/MBC; type: cell-based; details: for MIC: Streptococcus anginosus, read-out: MIC
[4] = tested on: Streptococcus constellatus; experiment: Expanded panel broth microdilution MIC; type: cell-based
Streptococcus mitis = experiment: Expanded panel broth microdilution MIC/MBC; type: cell-based; details: for MIC: Streptococcus mitis
Streptococcus oralis = experiment: Expanded panel broth microdilution MIC; type: cell-based
Clostridioides difficile = experiment: Expanded panel broth microdilution MIC; type: cell-based
Clostridium. perfringens = experiment: microbe, parasite or virus in culture; type: cell-based
[5] = tested on: MRSA (ATCC BAA 1556; USA300); experiment: Acute pulmonary MRSA infection in neutropenic rats, nebulized nose-only inhalation; type: in vivo, Staphylococcus aureus; details: inhaled at 24 and 32 h postinfection, lungs at 48 h, RV40 14.4 mg/kg, RV94 18.8 mg/kg delivered
Procedure: Rats were rendered neutropenic with intraperitoneal (i.p.) cyclophosphamide on day −4 (150 mg/kg) and day −1 (100 mg/kg) relative to the challenge. On day 0 at 0 h, rats were challenged with MRSA via intranasal instillation at a target titer of 8.0 to 8.3 log10 CFU. At 24 and 32 h postchallenge, rats were loaded into a 12-port inhalation dosing tower, where they received nebulized drug or vehicle control treatments by nose-only inhalation. Animals were euthanized at 48 h postinfection for enumeration of lung MRSA titer. MRSA lung titer of test article treatments versus control is plotted for three separate experiments. […] Statistics are based on the Kolmogorov-Smirnov test for drug treatment versus control (RV94, P = 0.01). LOD = 2.1 log10 CFU/lungset.
Male Sprague Dawley rats (Envigo, Indianapolis, IN) weighing between 225 and 250 g were used in these studies. Rats were housed and acclimated to the study facility as described in the PK methods section. Rats were rendered neutropenic through a series of intraperitoneal cyclophosphamide (Sigma-Aldrich) injections on day −4 (150 mg/kg) and day −1 (100 mg/kg) relative to the challenge. On day 0 at 0 h, rats were challenged with MRSA ATCC BAA 1556 via intranasal instillation at a target titer of 8.0 to 8.3 log10 CFU using optical density and back-counting inoculum CFU. To prepare the inoculum, a frozen aliquot of the organism stored at −80°C was thawed, transferred into TSB, and incubated at 37°C while shaking for 16 h. Cultures were then centrifuged at 2,000 × g for 5 min, and the resulting pellet was resuspended in PBS and equilibrated. For the challenge procedure, rats were first anesthetized through use of 2 to 5% isoflurane in 100% oxygen, then restrained with a scruff grip and a total of 200 μl of inoculum was quickly introduced to one nare. The rat was held in a vertical position until the challenge was fully inhaled. Rats were monitored following challenge to ensure that normal respiration was achieved and then returned to their cage. […] At necropsy, whole lungs were aseptically removed and lung weights were recorded. […]

S. aureus = experiment: Expanded panel broth microdilution MIC/MBC; details: for MIC: Staphylococcus aureus
[6] = MRSA and MSSA isolates of Table 1

CCCCCCCCCCNC(=O)CNC1(C)CC(OC2C(Oc3c4cc5cc3Oc3ccc(cc3Cl)C(O)C3NC(=O)C(NC(=O)C5NC(=O)C(CC(N)=O)NC(=O)C(NC(=O)C(CC(C)C)NC)C(O)c5ccc(c(Cl)c5)O4)c4ccc(O)c(c4)-c4c(O)cc(O)cc4C(C(=O)O)NC3=O)OC(CO)C(O)C2O)OC(C)C1O (centres unmarked) [RV94]
MIC potency, fold less potent than RV40 [1, 6]: ~2 fold | MIC potency, fold more potent than telavancin [1, 6]: ~2 fold | MIC potency, fold more potent than vancomycin [1, 6]: approximately 30 fold | MIC ([1]; Staphylococcus aureus, broth microdilution, read-out: MIC Value, MRSA ATCC BAA 1556): 0.031 µg/mL (≈ 18.8 nM) | MIC (MSSA ATCC 29213): 0.031 µg/mL (≈ 18.8 nM) | MIC:MBC ([2]; S. epidermidis MRSE, MBC on one organism): 1 | MIC ([2]; ATCC49134, S. epidermidis ATCC 49134, MSSE, read-out: MIC): 0.015 µg/mL (≈ 9.11 nM) | MIC ([2]; MRSE, S. epidermidis MMX 762, MRSE, read-out: MIC): 0.03 µg/mL (≈ 18.2 nM) | MIC ([2]; MRSE, S. epidermidis MMX 5145, MRSE, read-out: MIC): 0.015 µg/mL (≈ 9.11 nM) | MIC ([2]; MRSE, S. epidermidis MRSE, 2 isolates, read-out: MIC (median)): 0.03 µg/mL (≈ 18.2 nM) | MIC ([2]; S. epidermidis MSSE, 1 isolate, read-out: MIC): 0.015 µg/mL (≈ 9.11 nM) | MIC (Staphylococcus hominis; ATCC27844, S. hominis ATCC 27844, read-out: MIC): 0.03 µg/mL (≈ 18.2 nM) | MIC (Staphylococcus hominis; S. hominis, 1 isolate, read-out: MIC): 0.03 µg/mL (≈ 18.2 nM) | MIC:MBC (Streptococcus pneumoniae; S. pneumoniae PISP, MBC on one organism): 4 | MIC (Streptococcus pneumoniae; S. pneumoniae PRSP, 1 isolate): 0.008 µg/mL (≈ 4.86 nM) | MIC (Streptococcus pneumoniae; Streptococcus pneumoniae, ATCC49619, S. pneumoniae ATCC 49619, PISP, read-out: MIC): 0.008 µg/mL (≈ 4.86 nM) | MIC (Streptococcus pneumoniae; Streptococcus pneumoniae, S. pneumoniae MMX 432, PRSP, read-out: MIC): 0.008 µg/mL (≈ 4.86 nM) | MIC (Streptococcus pneumoniae; Streptococcus pneumoniae, S. pneumoniae MMX 747, PISP, read-out: MIC): 0.004 µg/mL (≈ 2.43 nM) | MIC (Streptococcus pneumoniae; Streptococcus pneumoniae, S. pneumoniae PISP, 2 isolates, read-out: MIC (median)): 0.006 µg/mL (≈ 3.64 nM) | MIC:MBC ([3]; S. dysgalactiae, MBC on one organism): 4 | MIC ([3]; S. dysgalactiae MMX 5121, read-out: MIC): 0.008 µg/mL (≈ 4.86 nM) | MIC ([3]; S. dysgalactiae MMX 5123, read-out: MIC): 0.03 µg/mL (≈ 18.2 nM) | MIC ([3]; S. dysgalactiae MMX 5124, read-out: MIC): 0.008 µg/mL (≈ 4.86 nM) | MIC ([3]; S. dysgalactiae, 3 isolates, read-out: MIC (median)): 0.008 µg/mL (≈ 4.86 nM) | MIC:MBC (Streptococcus anginosus; S. anginosus AGS): >8 | MIC (Streptococcus anginosus; ATCC33397, S. anginosus (AGS) ATCC 33397): 0.015 µg/mL (≈ 9.11 nM) | MIC (Streptococcus anginosus; S. anginosus AGS, 1 isolate): 0.015 µg/mL (≈ 9.11 nM) | MIC ([4]; S. constellatus AGS, 1 isolate): 0.008 µg/mL (≈ 4.86 nM) | MIC ([4]; Streptococcus constellatus, S. constellatus (AGS) MMX 5677, read-out: MIC): 0.008 µg/mL (≈ 4.86 nM) | MIC:MBC (Streptococcus mitis; S. mitis MGS, MBC on one organism): 1 | MIC (Streptococcus mitis; ATCC49456, S. mitis (MGS) ATCC 49456, read-out: MIC): 0.008 µg/mL (≈ 4.86 nM) | MIC (Streptococcus mitis; S. mitis (MGS) MMX 5798, read-out: MIC): 0.008 µg/mL (≈ 4.86 nM) | MIC (Streptococcus mitis; S. mitis MGS, 2 isolates, read-out: MIC (median)): 0.008 µg/mL (≈ 4.86 nM) | MIC (Streptococcus oralis; S. oralis MGS, 1 isolate): 0.015 µg/mL (≈ 9.11 nM) | MIC (Streptococcus oralis; Streptococcus oralis, S. oralis (MGS) MMX 5821, read-out: MIC): 0.015 µg/mL (≈ 9.11 nM) | MIC (Clostridioides difficile; ATCCBAA1805, C. difficile ATCC BAA-1805, ribo 027, read-out: MIC): 0.015 µg/mL (≈ 9.11 nM) | MIC (Clostridioides difficile; ATCCBAA1870, C. difficile ATCC BAA-1870, NAP1;ribo 027, read-out: MIC): 0.06 µg/mL (≈ 36.4 nM) | MIC (Clostridioides difficile; C. difficile ATTC 700057, toxAB-, read-out: MIC): 0.015 µg/mL (≈ 9.11 nM) | MIC (Clostridioides difficile; C. difficile NAP1;ribo 027, 1 isolate, read-out: MIC): 0.06 µg/mL (≈ 36.4 nM) | MIC (Clostridioides difficile; C. difficile ribo 027, 1 isolate, read-out: MIC): 0.015 µg/mL (≈ 9.11 nM) | MIC (Clostridioides difficile; C. difficile toxAB-, 1 isolate, read-out: MIC): 0.015 µg/mL (≈ 9.11 nM) | MIC (Clostridium. perfringens): 0.008 µg/mL (≈ 4.86 nM) | MIC (Clostridium. perfringens; ATCC13124): 0.008 µg/mL (≈ 4.86 nM) | Average reduction in lung MRSA titer versus vehicle control [5]: 1.0 log10 CFU | MIC:MBC (S. aureus; S. aureus MRSA, MBC median of n = 5): 1 | MIC:MBC (S. aureus; S. aureus MSSA, MBC on one organism): 8 | MIC:MBC (S. aureus; S. aureus VISA, MBC median of n = 2): 2 | MIC:MBC (S. aureus; S. aureus hVISA, MBC on one organism): 8 | MIC (S. aureus; ATCC13709 / MSSA, S. aureus ATCC 13709, MSSA): 0.03 µg/mL (≈ 18.2 nM) | MIC (S. aureus; ATCC29213 / MSSA, S. aureus ATCC 29213, MSSA): 0.015 µg/mL (≈ 9.11 nM) | MIC (S. aureus; ATCC43300 / MRSA, S. aureus ATCC 43300, MRSA): 0.015 µg/mL (≈ 9.11 nM) | MIC (S. aureus; ATCCBAA1556|MRSA|USA300, S. aureus ATCC BAA-1556, MRSA, USA300 (expanded panel)): 0.03 µg/mL (≈ 18.2 nM) | MIC (S. aureus; ATCCBAA1756|MRSA|NRS384|USA300, S. aureus NRS 384, ATCC BAA-1756, MRSA, USA300): 0.015 µg/mL (≈ 9.11 nM) | MIC (S. aureus; MRSA / NRS123 / USA400, S. aureus NRS123, MRSA, USA400): 0.015 µg/mL (≈ 9.11 nM) | MIC (S. aureus; MRSA / NRS725 / USA300, S. aureus NRS725, MRSA, USA300): 0.015 µg/mL (≈ 9.11 nM) | MIC (S. aureus; MRSA / USA300, S. aureus MMX 3982, MRSA, USA300): 0.015 µg/mL (≈ 9.11 nM) | MIC (S. aureus; MRSA, S. aureus MMX 7899, MRSA): 0.015 µg/mL (≈ 9.11 nM) | MIC (S. aureus; MRSA, S. aureus MMX 7900, MRSA): 0.015 µg/mL (≈ 9.11 nM) | MIC (S. aureus; MRSA, S. aureus MMX 7901, MRSA): 0.015 µg/mL (≈ 9.11 nM) | MIC (S. aureus; MRSA, S. aureus MMX 7902, MRSA): 0.03 µg/mL (≈ 18.2 nM) | MIC (S. aureus; MRSA, S. aureus MMX 7903, MRSA): 0.015 µg/mL (≈ 9.11 nM) | MIC (S. aureus; MRSA, read-out: MIC (median), S. aureus MRSA, 12 isolates): 0.015 µg/mL (≈ 9.11 nM) | MIC (S. aureus; MSSA, S. aureus MMX 7907, MSSA): 0.03 µg/mL (≈ 18.2 nM) | MIC (S. aureus; MSSA, S. aureus MMX 7908, MSSA): 0.015 µg/mL (≈ 9.11 nM) | MIC (S. aureus; MSSA, read-out: MIC (median), S. aureus MSSA, 4 isolates): 0.023 µg/mL (≈ 14 nM) | MIC (S. aureus; NRS1 / VISA, S. aureus NRS1, VISA, Mu50): 0.25 µg/mL (≈ 152 nM) | MIC (S. aureus; NRS2, S. aureus NRS2, hVISA;Mu3): 0.03 µg/mL (≈ 18.2 nM) | MIC (S. aureus; NRS4 / VISA, S. aureus NRS4, VISA): 0.06 µg/mL (≈ 36.4 nM) | MIC (S. aureus; NRS13 / VISA, S. aureus NRS13, VISA): 0.12 µg/mL (≈ 72.9 nM) | MIC (S. aureus; NRS22 / VISA, S. aureus NRS22, VISA): 0.12 µg/mL (≈ 72.9 nM) | MIC (S. aureus; NRS23, S. aureus NRS23, hVISA): 0.12 µg/mL (≈ 72.9 nM) | MIC (S. aureus; NRS52 / VISA, S. aureus NRS52, VISA): 0.06 µg/mL (≈ 36.4 nM) | MIC (S. aureus; VISA, read-out: MIC (median), S. aureus VISA, 5 isolates): 0.12 µg/mL (≈ 72.9 nM) | MIC (S. aureus; VRSA, read-out: MIC (median), S. aureus VRSA, 12 isolates (JMI Laboratories)): 4 µg/mL (≈ 2430 nM) | MIC (S. aureus; read-out: MIC (median), S. aureus hVISA, 2 isolates): 0.08 µg/mL (≈ 48.6 nM) | MIC, fold activity reduction compared to RV40 (S. aureus; VISA): 2 fold | MIC, fold enhancement in comparison to vancomycin (S. aureus; VISA): 30 fold | MIC, fold activity reduction compared to RV40 (S. aureus; hVISA): 3 fold | MIC, fold enhancement in comparison to vancomycin (S. aureus; hVISA): 18 fold | MIC, fold enhancement compared to telavancin (S. aureus; hVISA and VISA (both strains)): 2 fold
